The text below walks through data of ChEMBL document CHEMBL1139487, “Discovery of corticotropin releasing factor 2 receptor selective sauvagine analogues for treatment of skeletal muscle atrophy” (J Med Chem, 2005).

Assay [1] deals with T1, Corticotropin-releasing factor receptor 1 (Mus musculus, UniProt P35347).
T1 sequence (P35347 whole entry): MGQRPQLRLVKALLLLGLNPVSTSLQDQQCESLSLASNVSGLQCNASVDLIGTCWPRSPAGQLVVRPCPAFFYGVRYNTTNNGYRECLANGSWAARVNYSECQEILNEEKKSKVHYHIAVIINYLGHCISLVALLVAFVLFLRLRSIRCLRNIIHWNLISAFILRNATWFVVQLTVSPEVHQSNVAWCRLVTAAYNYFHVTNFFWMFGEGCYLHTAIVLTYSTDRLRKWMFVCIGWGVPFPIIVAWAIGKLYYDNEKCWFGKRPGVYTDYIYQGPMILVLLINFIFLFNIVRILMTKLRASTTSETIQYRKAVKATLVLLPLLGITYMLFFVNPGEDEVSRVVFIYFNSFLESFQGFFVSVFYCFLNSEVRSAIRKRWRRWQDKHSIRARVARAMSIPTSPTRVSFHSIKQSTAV
Put plainly: In vitro effective concentration for mouse corticotropin releasing factor 1 receptor.

For assay [2], the target named is Corticotropin-releasing factor receptor 2 (Mus musculus, UniProt Q60748). Put plainly: In vitro effective concentration for mouse corticotropin releasing factor 2 receptor.
Corticotropin-releasing factor receptor 2, sequence (Q60748 whole entry): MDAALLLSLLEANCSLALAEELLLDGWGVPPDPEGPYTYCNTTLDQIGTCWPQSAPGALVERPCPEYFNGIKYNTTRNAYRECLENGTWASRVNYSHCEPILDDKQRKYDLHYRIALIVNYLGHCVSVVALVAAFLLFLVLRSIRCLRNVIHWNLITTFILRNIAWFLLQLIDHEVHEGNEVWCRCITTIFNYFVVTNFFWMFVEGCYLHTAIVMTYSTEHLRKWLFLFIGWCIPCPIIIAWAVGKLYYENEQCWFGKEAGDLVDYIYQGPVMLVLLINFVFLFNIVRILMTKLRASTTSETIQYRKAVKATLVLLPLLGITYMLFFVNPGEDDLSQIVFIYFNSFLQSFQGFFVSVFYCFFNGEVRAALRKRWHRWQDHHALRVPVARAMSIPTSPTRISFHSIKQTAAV

Square brackets hold non-standard residues; d marks the D form. Peptide text beside a SMILES is read from it. 1Nal = N[C@@H](Cc1cccc2ccccc12)C(=O)O; 2Nal = N[C@@H](Cc1ccc2ccccc2c1)C(=O)O; pGlu = O=C1CC[C@@H](C(=O)O)N1

Regarding `CC[C@H](C)[C@H](NC(=O)[C@@H](NC(=O)[C@H](CC(=O)O)NC(=O)[C@H](CC(C)C)NC(=O)[C@H](CC(C)C)NC(=O)[C@H](CC(C)C)NC(=O)[C@H](CCCNC(=N)N)NC(=O)[C@H](CC(N)=O)NC(=O)[C@H](CC(N)=O)NC(=O)[C@H](C)NC(=O)[C@H](C)NC(=O)[C@H](CCC(N)=O)NC(=O)[C@H](CCC(N)=O)NC(=O)[C@H](CCCCN)NC(=O)[C@H](CCC(=O)O)NC(=O)[C@H](CCCCN)NC(=O)[C@H](CCC(=O)O)NC(=O)[C@H](CCC(N)=O)NC(=O)[C@H](CCCCN)NC(=O)[C@H](CCC(=O)O)NC(=O)[C@@H](NC(=O)[C@H](CCC(=O)O)NC(=O)[C@@H](NC(=O)[C@H](CCSC)NC(=O)[C@H](CCCCN)NC(=O)[C@H](CCCNC(=N)N)NC(=O)[C@H](CC(C)C)NC(=O)[C@H](CC(C)C)NC(=O)[C@@H](NC(=O)[C@H](CCC(N)=O)NC(=O)[C@@H]1CCCN1C(=O)[C@H](CC(C)C)NC(=O)[C@H](CC(=O)O)NC(=O)[C@@H](NC(=O)[C@H](CO)NC(=O)[C@@H](NC(=O)[C@@H]1CCCN1C(=O)[C@@H]1CCCN1C(=O)CNC(=O)[C@@H]1CCC(=O)N1)[C@@H](C)CC)[C@@H](C)CC)[C@@H](C)CC)[C@@H](C)CC)[C@@H](C)CC)[C@@H](C)O)C(=O)O`, the EC50 in assay [1] was determined as 707 nM; in assay [2], 8.5 nM.

Turning to `CC[C@H](C)[C@H](NC(=O)[C@@H](NC(=O)[C@H](CC(=O)O)NC(=O)[C@H](CC(C)C)NC(=O)[C@H](CC(C)C)NC(=O)[C@H](CC(C)C)NC(=O)[C@H](CCCNC(=N)N)NC(=O)[C@H](CC(N)=O)NC(=O)[C@H](CC(N)=O)NC(=O)[C@H](C)NC(=O)[C@H](C)NC(=O)[C@H](CCC(N)=O)NC(=O)[C@H](CCC(N)=O)NC(=O)[C@H](CCCCN)NC(=O)[C@H](CCC(=O)O)NC(=O)[C@H](CCCCN)NC(=O)[C@H](CCC(=O)O)NC(=O)[C@H](CCC(N)=O)NC(=O)[C@H](CCCCN)NC(=O)[C@H](CCC(=O)O)NC(=O)[C@@H](NC(=O)[C@H](CCC(=O)O)NC(=O)[C@@H](NC(=O)[C@H](CCSC)NC(=O)[C@H](CCCCN)NC(=O)[C@H](CCCNC(=N)N)NC(=O)[C@H](CC(C)C)NC(=O)[C@H](CC(C)C)NC(=O)[C@H](Cc1ccc(O)cc1)NC(=O)[C@@H](NC(=O)[C@@H]1CCCN1C(=O)[C@H](CC(C)C)NC(=O)[C@H](CC(=O)O)NC(=O)[C@@H](NC(=O)[C@H](CO)NC(=O)[C@@H](NC(=O)[C@@H]1CCCN1C(=O)[C@@H]1CCCN1C(=O)CNC(=O)[C@@H]1CCC(=O)N1)[C@@H](C)CC)[C@@H](C)CC)[C@@H](C)CC)[C@@H](C)CC)[C@@H](C)CC)[C@@H](C)O)C(=O)O`, the EC50 was greater than 1000 nM in assay [1] and 22.3 nM in assay [2].

Regarding `CC[C@H](C)[C@H](NC(=O)[C@@H](NC(=O)[C@H](CC(=O)O)NC(=O)[C@H](CC(C)C)NC(=O)[C@H](CC(C)C)NC(=O)[C@H](CC(C)C)NC(=O)[C@H](CCCNC(=N)N)NC(=O)[C@H](CC(N)=O)NC(=O)[C@H](CC(N)=O)NC(=O)[C@H](C)NC(=O)[C@H](C)NC(=O)[C@H](CCC(N)=O)NC(=O)[C@H](CCC(N)=O)NC(=O)[C@H](CCCCN)NC(=O)[C@H](CCC(=O)O)NC(=O)[C@H](CCCCN)NC(=O)[C@H](CCC(=O)O)NC(=O)[C@H](CCC(N)=O)NC(=O)[C@H](CCCCN)NC(=O)[C@H](CCC(=O)O)NC(=O)[C@@H](NC(=O)[C@H](CCC(=O)O)NC(=O)[C@@H](NC(=O)[C@H](CCSC)NC(=O)[C@H](CCCCN)NC(=O)[C@H](CCCNC(=N)N)NC(=O)[C@H](CC(C)C)NC(=O)[C@H](CC(C)C)NC(=O)CNC(=O)[C@H](CC(C)C)NC(=O)[C@@H]1CCCN1C(=O)[C@H](CC(C)C)NC(=O)[C@H](CC(=O)O)NC(=O)[C@@H](NC(=O)[C@H](CO)NC(=O)[C@@H](NC(=O)[C@@H]1CCCN1C(=O)[C@@H]1CCCN1C(=O)CNC(=O)[C@@H]1CCC(=O)N1)[C@@H](C)CC)[C@@H](C)CC)[C@@H](C)CC)[C@@H](C)CC)[C@@H](C)O)C(=O)O` ([pGlu]GPPISIDLPLGLLRKMIEIEKQEKEKQQAANNRLLLDTI-OH), the EC50 in assay [1] was 312 nM; in assay [2], 21.6 nM.

On to `CC[C@H](C)[C@H](NC(=O)[C@@H](NC(=O)[C@H](CC(=O)O)NC(=O)[C@H](CC(C)C)NC(=O)[C@H](CC(C)C)NC(=O)[C@H](CC(C)C)NC(=O)[C@H](CCCNC(=N)N)NC(=O)[C@H](CC(N)=O)NC(=O)[C@H](CC(N)=O)NC(=O)[C@H](C)NC(=O)[C@H](C)NC(=O)[C@H](CCC(N)=O)NC(=O)[C@H](CCC(N)=O)NC(=O)[C@H](CCCCN)NC(=O)[C@H](CCC(=O)O)NC(=O)[C@H](CCCCN)NC(=O)[C@H](CCC(=O)O)NC(=O)[C@H](CCC(N)=O)NC(=O)[C@H](CCCCN)NC(=O)[C@H](CCC(=O)O)NC(=O)[C@@H](NC(=O)[C@H](CCC(=O)O)NC(=O)[C@@H](NC(=O)[C@H](CCSC)NC(=O)[C@H](CCCCN)NC(=O)[C@H](CCCNC(=N)N)NC(=O)[C@H](CC(C)C)NC(=O)[C@H](CC(C)C)NC(=O)[C@H](Cc1ccc2ccccc2c1)NC(=O)[C@H](C)NC(=O)[C@@H]1CCCN1C(=O)[C@H](CC(C)C)NC(=O)[C@H](CC(=O)O)NC(=O)[C@@H](NC(=O)[C@H](CO)NC(=O)[C@@H](NC(=O)[C@@H]1CCCN1C(=O)[C@@H]1CCCN1C(=O)CNC(=O)[C@@H]1CCC(=O)N1)[C@@H](C)CC)[C@@H](C)CC)[C@@H](C)CC)[C@@H](C)CC)[C@@H](C)O)C(=O)O` ([pGlu]GPPISIDLPA[2Nal]LLRKMIEIEKQEKEKQQAANNRLLLDTI-OH), for which the figures for the EC50 in assay [1] and in assay [2] were 582 nM and 13.3 nM, respectively.

For the compound `CC[C@H](C)[C@H](NC(=O)[C@@H](NC(=O)[C@H](CC(=O)O)NC(=O)[C@H](CC(C)C)NC(=O)[C@H](CC(C)C)NC(=O)[C@H](CC(C)C)NC(=O)[C@H](CCCNC(=N)N)NC(=O)[C@H](CC(N)=O)NC(=O)[C@H](CC(N)=O)NC(=O)[C@H](C)NC(=O)[C@H](C)NC(=O)[C@H](CCC(N)=O)NC(=O)[C@H](CCC(N)=O)NC(=O)[C@H](CCCCN)NC(=O)[C@H](CCC(=O)O)NC(=O)[C@H](CCCCN)NC(=O)[C@H](CCC(=O)O)NC(=O)[C@H](CCC(N)=O)NC(=O)[C@H](CCCCN)NC(=O)[C@H](CCC(=O)O)NC(=O)[C@@H](NC(=O)[C@H](CCC(=O)O)NC(=O)[C@@H](NC(=O)[C@H](CCSC)NC(=O)[C@H](CCCCN)NC(=O)[C@H](CCCNC(=N)N)NC(=O)[C@H](CC(C)C)NC(=O)[C@H](CC(C)C)NC(=O)[C@H](CCC(N)=O)NC(=O)[C@H](CC(C)C)NC(=O)[C@@H]1CCCN1C(=O)[C@H](CC(C)C)NC(=O)[C@H](CC(=O)O)NC(=O)[C@@H](NC(=O)[C@H](CO)NC(=O)[C@@H](NC(=O)[C@@H]1CCCN1C(=O)[C@@H]1CCCN1C(=O)CNC(=O)[C@@H]1CCC(=O)N1)[C@@H](C)CC)[C@@H](C)CC)[C@@H](C)CC)[C@@H](C)CC)[C@@H](C)O)C(=O)O`, the EC50 in assay [1] was determined as 423 nM; in assay [2], 6.5 nM.

As for `CC[C@H](C)[C@H](NC(=O)[C@@H](NC(=O)[C@H](CC(=O)O)NC(=O)[C@H](CC(C)C)NC(=O)[C@H](CC(C)C)NC(=O)[C@H](CC(C)C)NC(=O)[C@H](CCCNC(=N)N)NC(=O)[C@H](CC(N)=O)NC(=O)[C@H](CC(N)=O)NC(=O)[C@H](C)NC(=O)[C@H](C)NC(=O)[C@H](CCC(N)=O)NC(=O)[C@H](CCC(N)=O)NC(=O)[C@H](CCCCN)NC(=O)[C@H](CCC(=O)O)NC(=O)[C@H](CCCCN)NC(=O)[C@H](CCC(=O)O)NC(=O)[C@H](CCC(N)=O)NC(=O)[C@H](CCCCN)NC(=O)[C@H](CCC(=O)O)NC(=O)[C@@H](NC(=O)[C@H](CCC(=O)O)NC(=O)[C@@H](NC(=O)[C@H](CCSC)NC(=O)[C@H](CCCCN)NC(=O)[C@H](CCCNC(=N)N)NC(=O)[C@H](CC(C)C)NC(=O)[C@H](CC(C)C)NC(=O)[C@H](Cc1cccc2ccccc12)NC(=O)[C@H](CCC(N)=O)NC(=O)[C@@H]1CCCN1C(=O)[C@H](CC(C)C)NC(=O)[C@H](CC(=O)O)NC(=O)[C@@H](NC(=O)[C@H](CO)NC(=O)[C@@H](NC(=O)[C@@H]1CCCN1C(=O)[C@@H]1CCCN1C(=O)CNC(=O)[C@@H]1CCC(=O)N1)[C@@H](C)CC)[C@@H](C)CC)[C@@H](C)CC)[C@@H](C)CC)[C@@H](C)O)C(=O)O` ([pGlu]GPPISIDLPQ[1Nal]LLRKMIEIEKQEKEKQQAANNRLLLDTI-OH), the EC50 in assay [1] came to 367 nM; in assay [2] it was 14.1 nM.

Consider `CC[C@H](C)[C@H](NC(=O)[C@@H](NC(=O)[C@H](CC(=O)O)NC(=O)[C@H](CC(C)C)NC(=O)[C@H](CC(C)C)NC(=O)[C@H](CC(C)C)NC(=O)[C@H](CCCNC(=N)N)NC(=O)[C@H](CC(N)=O)NC(=O)[C@H](CC(N)=O)NC(=O)[C@H](C)NC(=O)[C@H](C)NC(=O)[C@H](CCC(N)=O)NC(=O)[C@H](CCC(N)=O)NC(=O)[C@H](CCCCN)NC(=O)[C@H](CCC(=O)O)NC(=O)[C@H](CCCCN)NC(=O)[C@H](CCC(=O)O)NC(=O)[C@H](CCC(N)=O)NC(=O)[C@H](CCCCN)NC(=O)[C@H](CCC(=O)O)NC(=O)[C@@H](NC(=O)[C@H](CCC(=O)O)NC(=O)[C@@H](NC(=O)[C@H](CCSC)NC(=O)[C@H](CCCCN)NC(=O)[C@H](CCCNC(=N)N)NC(=O)[C@H](CC(C)C)NC(=O)[C@H](CC(C)C)NC(=O)[C@H](Cc1ccccc1)NC(=O)[C@H](Cc1ccc(O)cc1)NC(=O)[C@@H]1CCCN1C(=O)[C@H](CC(C)C)NC(=O)[C@H](CC(=O)O)NC(=O)[C@@H](NC(=O)[C@H](CO)NC(=O)[C@@H](NC(=O)[C@@H]1CCCN1C(=O)[C@@H]1CCCN1C(=O)CNC(=O)[C@@H]1CCC(=O)N1)[C@@H](C)CC)[C@@H](C)CC)[C@@H](C)CC)[C@@H](C)CC)[C@@H](C)O)C(=O)O`, for which the EC50 was 63.6 nM in assay [1] and 4.1 nM in assay [2].
